{"source": "patent US9044452B2", "about": "“Use of resiniferatoxin (RTX) for producing an agent for treating joint pains and method for applying said agent” (MESTEX AG, priority 2004, dated 2015)", "key": {"[1]": {"test_system": "painful, septic loosening of a total hip endoprosthesis", "assay": "Injection into (neo)-capsule about the prosthesis in painful, septic loosening of a total hip endoprosthesis", "assay_type": "in vivo, human", "experimental": "A solution of 5 μmolar (approximately 0.03 mg) solution of resiniferatoxin was injected into the (neo)-capsule about the prosthesis of a patient with a painful, septic loosening of a total hip endoprosthesis. […] Optionally, this treatment may be supported with systemically administered antibiotics (such as 450 mg of Rifampicin, 750 mg of ciproflaxacin)."}, "[2]": {"test_system": "knee joint", "assay": "Injection of resiniferatoxin solution into the intracapsular space of a patient's knee joint", "assay_type": "in vivo, human", "experimental": "(§1) Under the optionally simultaneous (image converter, CT, sonography, MRI, etc.) or subsequent (x-ray, CT, MRI, sonography, arthroscopy, etc.) imaging control, the therapist brought an injection needle into the joint space of a knee joint and injected 9 mL of a 500 nmolar solution (approximately 0.003 mg) of resiniferatoxin into the intracapsular space. The patient noted a clear alleviation of their symptoms already 14 hours after the intervention. This alleviation lasted for more than 6 months.\nUnder the optionally simultaneous (image converter, CT, sonography, MRI, arthroscopy, etc.) or subsequent (x-ray, CT, MRI, sonography, etc.) imaging control, the therapist brought an injection needle into the joint space of a knee joint and injected […] of a 500 nmolar solution (approximately 0.006 mg) of resiniferatoxin into the intracapsular space. The patient noted a clear alleviation of their symptoms already a few days after the intervention. This alleviation lasted for more than 6 months.\nThe injected solution corresponded to that of Example 1 with the difference that, for the imaging method to be used, 5 mL of a visible contrasting agent (Iopamidol) was added at a concentration of 50 g/100 mL. After the injection, this contrasting agent spread out within the joint capsule and documented the position of the injection needle and the distribution of the RTX within the joint capsule. The injected solution, containing RTX, was drawn off again directly after the injection. It could, however, also be drawn off after a defined, substance-dependent time of action or not be drawn off at all. The patient noted a clear alleviation of their symptoms already 15 hours after the intervention. This alleviation lasted for more than 8 months.\nas §1, with “nM (approx.” for “nmolar solution (approximately”, “mg) solution” for “mg)”, “resiniferatoxin, buffered with a buffer to a pH of 8.5, together physiological salt solution” for “resiniferatoxin”, “a few minutes” for “14 hours”\nUnder the optionally simultaneous (image converter, CT, sonography, MRI, etc.) or subsequent (x-ray, CT, MRI, sonography, arthroscopy, etc.) imaging control, the therapist, brought an injection needle into the joint space of a knee joint and injected 9 mL of a 500 nmolar solution (approximately 0.003 mg) of resiniferatoxin, buffered to a pH of 6.5 with a buffer, together with a physiological salt solution into the intracapsular space.\nUnder the optionally simultaneous (image converter, CT, sonography, MRI, etc.) or subsequent (x-ray, CT, MRI, sonography, arthroscopy, etc.) imaging control, the therapist, brought an injection needle into the joint space of a knee joint and injected 9 mL of a 500 nmolar solution (approximately 0.003 mg) of resiniferatoxin, in a physiological Ringer solution with 10 mmolar Ca2+ into the intracapsular space."}, "[3]": {"test_system": "chronically inflamed bursa (Bursa trochenterica)", "assay": "Injection into chronically inflamed bursa (Bursa trochenterica)", "assay_type": "in vivo, human", "experimental": "The therapist injected 5 mL of a solution of a 500 nmolar (approximately 0.001 mg) solution of resiniferatoxin, buffered to a pH of 8.5 with a buffer, together with physiological salt solution as solvent, into a chronically inflamed bursa (Bursa trochenterica) over the greater trochanter of the hip. Within 60 minutes, the symptoms of the patient disappeared and the patient remained asymptomatic at this place for several years.\nThe therapist injected 50 mL of a 100 nmolar (approximately 0.001 mg) solution of resiniferatoxin in glycerin or Ringer lactate as solvent. Within 60 minutes, the symptoms of the patient disappeared and the patient remained asymptomatic at this place for several years."}, "[4]": {"test_system": "affected joint", "assay": "Continuous infusion of resiniferatoxin solution into the affected joint via infusion catheter", "assay_type": "in vivo, human", "details": "Example 4: 100 nmolar", "experimental": "The therapist placed a thin infusion catheter, similar to an epidural catheter, into the affected joint and, with a perfuser, injected a solution of […] of 100 nmolar of resiniferatoxin into the affected joint at a rate of 1-10 mL/h for 12 hours. Optionally, they also placed a drainage catheter with an optionally defined drainage resistance (such as 20 mm Hg), in order to achieve a liquid turnover. With this method, the therapist achieved a uniform infiltration of the painful joint, without large concentration peaks. Moreover, it was possible to define the period of action better.\nThe patient noted a clear alleviation of their symptoms already 12 hours after the intervention. This alleviation lasted for more than 1 year."}, "[5]": {"assay": "Local application of RTX without local anesthetic, compared with capsaicin or with combination with local anesthetic", "assay_type": "in vivo", "description": "Moreover, it is free of inflammation and pain. In particular, this preparation may be used without using ethanol, which otherwise is always necessary for the known intravesical administration. It is a further surprising advantage of the use without local or general anesthesia that, due to the injection, a warm, pleasant sensation sets in, which decisively supports combating pain. In this way, an amelioration of pain is achieved, which surpasses that of a combination with local anesthetics. This may also be explained by the antagonistic effect, which the local anesthetics have for vanilloid receptor agonists since they partially block the desired neurotoxic effect of vanilloids."}, "[6]": {"test_system": "shoulder joint", "assay": "Injection into shoulder joint of patient with painful capsulitis of joints (frozen shoulder)", "assay_type": "in vivo, human", "details": "for joint mobility lost due to capsulitis: with physiotherapy", "experimental": "The shoulder joint of a patient with painful capsulitis of joints (frozen shoulder) was injected with 9 mL of a 100 nmolar (approximately 0.001 mg) solution of resiniferatoxin in physiological salt solution. Once again, it was possible to check the distribution of the substance by adding the appropriate contrasting agent and employing an imaging procedure. Optionally, a substance with antiphlogistic activity was admixed. […] For this application, only a temporary analgesia (2-3 weeks) is desired. For this reason, the concentration of the neurotoxic substances, if anything, was kept low.\nThe shoulder joint of a patient with painful capsulitis of joints (frozen shoulder) was injected with 3 mL of a 500 nmolar (approximately 0.001 mg) solution of resiniferatoxin in physiological salt solution."}, "[7]": {"test_system": "postoperative pain", "assay": "Injection of resiniferatoxin after knee or hip joint prosthesis implantation (postoperative pain)", "assay_type": "in vivo, human", "experimental": "After a knee joint prosthesis had been implanted, the therapist injected 50 mL of a solution of 100 nmolar (approximately 0.001 mg) solution of resiniferatoxin into the joint capsule, which had been closed off once again.\nAfter a hip joint prosthesis had been implanted, the therapist injected 50 mL of a solution of 100 nmolar (approximately 0.001 mg) solution of resiniferatoxin into the periprosthetic region without a capsule."}, "[8]": {"details": "Example 7: 5 μmolar solution into (neo)-capsule about the prosthesis"}, "[9]": {"details": "Example 1: 9 mL of 500 nmolar solution, knee joint, intracapsular"}, "[10]": {"details": "Example 2: 20 mL of 500 nmolar solution, knee joint, intracapsular"}, "[11]": {"details": "Example 3: solution of Example 1 plus 5 mL Iopamidol 50 g/100 mL, drawn off directly after injection"}, "[12]": {"details": "Example 8: 9 mL of 500 nM solution buffered to pH 8.5, physiological salt solution, knee joint"}, "[13]": {"details": "Example 9: 9 mL of 500 nmolar solution buffered to pH 6.5, physiological salt solution, knee joint"}, "[14]": {"details": "Example 10: 9 mL of 500 nmolar solution in Ringer solution with 10 mmolar Ca2+, knee joint"}, "[15]": {"details": "Example 13: 5 mL of 500 nmolar solution buffered to pH 8.5, physiological salt solution, bursa over greater trochanter"}, "[16]": {"details": "Example 14: 50 mL of 100 nmolar solution in glycerin or Ringer lactate"}, "[17]": {"details": "1-10 mL/h for 12 hours via catheter"}, "[18]": {"details": "Example 11: 9 mL of 100 nmolar solution in physiological salt solution, shoulder joint"}, "[19]": {"details": "Example 12: 3 mL of 500 nmolar solution in physiological salt solution, shoulder joint"}}, "data": [{"smiles": "C=C(C)[C@]12C[C@@H](C)[C@@]34O[C@](Cc5ccccc5)(O[C@@H]1[C@@H]3C=C(COC(=O)Cc1ccc(O)c(OC)c1)C[C@]1(O)C(=O)C(C)=C[C@@H]41)O2", "note": "[resiniferatoxin]", "values": [{"measurement": "bone substance about the prosthesis (radiological)", "setting": "[1]; Example 7: 5 μmolar solution", "value": "the bone substance had consolidated about the prosthesis"}, {"measurement": "duration of alleviation of pain", "setting": "[1]; [8]", "value": "more than one year"}, {"measurement": "time to alleviation of pain", "setting": "[1]; [8]", "value": "6 to 12", "unit": "h"}, {"measurement": "infection about the prosthesis", "setting": "[1]; Example 7: 5 μmolar solution, diffusion of RTX along the shaft and about the socket", "value": "brought very much under control"}, {"measurement": "duration of alleviation", "setting": "[2]; [9]", "value": "more than 6 months"}, {"measurement": "time to clear alleviation of symptoms after the intervention", "setting": "[2]; [9]", "value": 14, "unit": "h"}, {"measurement": "duration of alleviation", "setting": "[2]; [10]", "value": "more than 6 months"}, {"measurement": "time to clear alleviation of symptoms after the intervention", "setting": "[2]; [10]", "value": "a few days"}, {"measurement": "duration of alleviation", "setting": "[2]; [11]", "value": "more than 8 months"}, {"measurement": "time to clear alleviation of symptoms after the intervention", "setting": "[2]; [11]", "value": 15, "unit": "h"}, {"measurement": "duration of alleviation", "setting": "[2]; [12]", "value": "more than 6 months"}, {"measurement": "time to clear alleviation of symptoms after the intervention", "setting": "[2]; [12]", "value": "a few minutes"}, {"measurement": "duration of alleviation", "setting": "[2]; [13]", "value": "more than 6 months"}, {"measurement": "time to clear alleviation of symptoms after the intervention", "setting": "[2]; [13]", "value": "Within minutes"}, {"measurement": "duration of alleviation", "setting": "[2]; [14]", "value": "more than 6 months"}, {"measurement": "time to clear alleviation of symptoms after the intervention", "setting": "[2]; [14]", "value": "Within minutes"}, {"measurement": "duration patient remained asymptomatic", "setting": "[3]; [15]", "value": "several years"}, {"measurement": "time to disappearance of symptoms", "setting": "[3]; [15]", "value": "≤ 60", "unit": "min"}, {"measurement": "duration patient remained asymptomatic", "setting": "[3]; [16]", "value": "several years"}, {"measurement": "time to disappearance of symptoms", "setting": "[3]; [16]", "value": "≤ 60", "unit": "min"}, {"measurement": "duration of alleviation", "setting": "[4]; [17]", "value": "more than 1 year"}, {"measurement": "time to clear alleviation of symptoms after the intervention", "setting": "[4]; [17]", "value": 12, "unit": "h"}, {"measurement": "inflamed tissue at subsequent arthroscopies", "setting": "[4]; 1-10 mL/h for 12 hours, arthroscopies after 1, 2, 7, 14 and 28 days", "value": "only a very little inflamed tissue was present"}, {"measurement": "local tolerability (burning, inflammation of tissue)", "setting": "[5]; applied locally, without a local anesthetic", "value": "no burning and also no inflammation of tissue"}, {"measurement": "effectiveness of RTX by itself versus injection together with a local anesthetic", "setting": "[5]; local intraarticular injection at a very low concentration", "value": "more effective than an injection together with a local anesthetic"}, {"measurement": "pain after injection", "setting": "[6]; [18]", "value": "alleviated permanently"}, {"measurement": "time to alleviation of pain after the injection", "setting": "[6]; [18]", "value": "A few minutes"}, {"measurement": "joint mobility lost due to capsulitis", "setting": "[6]; Example 11: 9 mL of 100 nmolar solution", "value": "able to regain the mobility"}, {"measurement": "pain after injection", "setting": "[6]; [19]", "value": "abated permanently"}, {"measurement": "time to abatement of pain after the injection", "setting": "[6]; [19]", "value": "A few minutes"}, {"measurement": "joint mobility lost due to capsulitis", "setting": "[6]; Example 12: 3 mL of 500 nmolar solution", "value": "regained the mobility lost due to capsulitis"}, {"measurement": "postoperative pain", "setting": "[7]; Example 5: 50 mL of 100 nmolar solution into closed joint capsule after knee joint prosthesis", "value": "possible to minimize postoperative pain"}, {"measurement": "postoperative pain", "setting": "[7]; Example 6: 50 mL of 100 nmolar solution into periprosthetic region without capsule after hip joint prosthesis", "value": "possible to minimize postoperative pain"}]}]}
